One series has as its system MIA PaCa-2. The series is described as follows: Antiproliferative activity against human MIAPaCa2 cells after 48 hrs by propidium iodide fluorescence assay. Type of series: functional, cell-based. To be noted: MIA PaCa-2, 48 h.
A further series has as its system HT-29. The series is described as follows: Antiproliferative activity against human HT-29 cells after 48 hrs by propidium iodide fluorescence assay. Type of series: functional, cell-based. To be noted: HT-29, 48 h.
Series [1] can be described thus: Cytotoxicity in human MCF10A cells assessed as cell viability incubated for 4 days by MTT assay. To be noted: read-out: Activity. Type of series: cell-based, MCF-10A. Set-up: concentration or dose not given beside the values. Background: Tetrazolium dyes change colour on reduction, which living cells bring about.
The next series concerns A-375. As to the kind of experiment: Antiproliferative activity against human A375 cells after 48 hrs by propidium iodide fluorescence assay. Type of series: functional, cell-based. The settings on record: A-375, 48 h.
Another series relates to PANC-1. As to the kind of experiment: Antiproliferative activity against human PANC1 cells after 48 hrs by propidium iodide fluorescence assay. Type of series: functional, cell-based. To be noted: PANC-1, 48 h.
Series [2] deals with NCI-H460. As to the kind of experiment: Antiproliferative activity against human NCI-H460 cells after 48 hrs by propidium iodide fluorescence assay. It counts as functional, cell-based. The settings on record: NCI-H460, 48 h.
For series [3], the system named is NCI-H460. As to the kind of experiment: Cell cycle arrest in human NCI-H460 cells assessed as accumulation of cells at G1 phase at 0.2 uM after 24 hrs by propidium iodide staining-based flow cytometric analysis (reference value: 47.39%). It counts as functional. Background: In flow cytometry, cells or beads pass a laser one at a time.
In series [4] the test system is NCI-H460. As to the kind of experiment: Cell cycle arrest in human NCI-H460 cells assessed as apoptotic cells at 0.2 uM after 24 hrs by propidium iodide staining-based flow cytometric analysis (reference value: 1.55%). It counts as functional.
The test system of series [5] is NCI-H460. As to the kind of experiment: Induction of apoptosis in human NCI-H460 cells assessed as late apoptotic cells at 0.2 uM after 24 hrs by Annexin V-FITC/propidium iodide staining-based flow cytometric analysis relative to control. Type of series: functional.
For series [6], the system named is NCI-H460. The series is described as follows: Induction of apoptosis in human NCI-H460 cells assessed as necrotic cells at 0.2 uM after 24 hrs by Annexin V-FITC/propidium iodide staining-based flow cytometric analysis relative to control. Type of series: functional.
Series [7] has as its target Epidermal growth factor receptor (Homo sapiens, UniProt P00533). As to the kind of experiment: Inhibition of His6-tagged EGFR cytoplasmic domain (645 to 1186 residues) (unknown origin) expressed in baculovirus infected Sf9 insect cells after 10 mins by DELFIA/time-resolved fluorometry.
Series [8] has as its system NCI-H460. The series is described as follows: Cell cycle arrest in human NCI-H460 cells assessed as accumulation of cells at S phase at 0.2 uM after 24 hrs by propidium iodide staining-based flow cytometric analysis (reference value: 42.61%). Type of series: functional.
The subject of series [9] is NCI-H460. As to the kind of experiment: Induction of apoptosis in human NCI-H460 cells assessed as early apoptotic cells at 0.2 uM after 24 hrs by Annexin V-FITC/propidium iodide staining-based flow cytometric analysis relative to control. Type of series: functional.
The test system of series [10] is NCI-H460. As to the kind of experiment: Cell cycle arrest in human NCI-H460 cells assessed as accumulation of cells at G2 phase at 0.2 uM after 24 hrs by propidium iodide staining-based flow cytometric analysis (reference value: 10%). Type of series: functional.
The target of series [11] is Vascular endothelial growth factor receptor 1 (Homo sapiens, UniProt P17948). As to the kind of experiment: Inhibition of VEGFR1 (unknown origin).
For series [12], the target named is Serine/threonine-protein kinase Chk2 (Homo sapiens, UniProt O96017). As to the kind of experiment: Inhibition of CHK2 (unknown origin).

The structures appear in SMILES notation. pIC50: −log10 of the molar value.

The term pIC50 denotes the negative decadic logarithm of the IC50, by convention in mol/L.

Sequence of Epidermal growth factor receptor (P00533 whole entry, the tested form may be a part): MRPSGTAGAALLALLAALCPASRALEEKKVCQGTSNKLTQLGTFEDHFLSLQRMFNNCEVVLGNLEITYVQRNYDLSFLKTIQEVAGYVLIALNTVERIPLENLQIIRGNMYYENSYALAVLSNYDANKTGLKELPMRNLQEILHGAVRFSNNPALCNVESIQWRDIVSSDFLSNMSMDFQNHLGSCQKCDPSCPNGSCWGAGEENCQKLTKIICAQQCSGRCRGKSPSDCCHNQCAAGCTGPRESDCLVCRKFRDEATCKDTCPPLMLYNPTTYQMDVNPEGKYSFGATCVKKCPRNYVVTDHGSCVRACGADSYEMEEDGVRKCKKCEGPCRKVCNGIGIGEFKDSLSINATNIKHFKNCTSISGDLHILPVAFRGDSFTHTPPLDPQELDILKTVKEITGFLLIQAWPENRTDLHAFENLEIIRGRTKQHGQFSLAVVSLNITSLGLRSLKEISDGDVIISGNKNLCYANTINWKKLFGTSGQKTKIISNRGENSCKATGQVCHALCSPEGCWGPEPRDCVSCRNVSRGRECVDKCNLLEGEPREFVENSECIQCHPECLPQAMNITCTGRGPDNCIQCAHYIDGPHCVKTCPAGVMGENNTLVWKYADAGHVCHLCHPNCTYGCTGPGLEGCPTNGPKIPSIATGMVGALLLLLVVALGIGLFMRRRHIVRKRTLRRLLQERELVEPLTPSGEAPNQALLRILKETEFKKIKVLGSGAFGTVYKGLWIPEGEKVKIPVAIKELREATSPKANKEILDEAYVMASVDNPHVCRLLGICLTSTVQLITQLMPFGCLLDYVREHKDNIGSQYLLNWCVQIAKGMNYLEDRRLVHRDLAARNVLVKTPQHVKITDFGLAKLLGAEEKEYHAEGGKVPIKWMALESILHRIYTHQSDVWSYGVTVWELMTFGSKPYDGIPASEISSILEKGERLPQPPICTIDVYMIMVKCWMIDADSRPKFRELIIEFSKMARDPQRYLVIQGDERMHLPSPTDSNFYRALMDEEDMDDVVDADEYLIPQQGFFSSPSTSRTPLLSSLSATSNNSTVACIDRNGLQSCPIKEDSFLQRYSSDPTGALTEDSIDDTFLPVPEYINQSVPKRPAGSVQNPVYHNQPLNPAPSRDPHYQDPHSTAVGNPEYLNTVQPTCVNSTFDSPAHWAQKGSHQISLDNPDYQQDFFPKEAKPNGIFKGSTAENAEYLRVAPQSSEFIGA
Sequence of Vascular endothelial growth factor receptor 1 (P17948 whole entry): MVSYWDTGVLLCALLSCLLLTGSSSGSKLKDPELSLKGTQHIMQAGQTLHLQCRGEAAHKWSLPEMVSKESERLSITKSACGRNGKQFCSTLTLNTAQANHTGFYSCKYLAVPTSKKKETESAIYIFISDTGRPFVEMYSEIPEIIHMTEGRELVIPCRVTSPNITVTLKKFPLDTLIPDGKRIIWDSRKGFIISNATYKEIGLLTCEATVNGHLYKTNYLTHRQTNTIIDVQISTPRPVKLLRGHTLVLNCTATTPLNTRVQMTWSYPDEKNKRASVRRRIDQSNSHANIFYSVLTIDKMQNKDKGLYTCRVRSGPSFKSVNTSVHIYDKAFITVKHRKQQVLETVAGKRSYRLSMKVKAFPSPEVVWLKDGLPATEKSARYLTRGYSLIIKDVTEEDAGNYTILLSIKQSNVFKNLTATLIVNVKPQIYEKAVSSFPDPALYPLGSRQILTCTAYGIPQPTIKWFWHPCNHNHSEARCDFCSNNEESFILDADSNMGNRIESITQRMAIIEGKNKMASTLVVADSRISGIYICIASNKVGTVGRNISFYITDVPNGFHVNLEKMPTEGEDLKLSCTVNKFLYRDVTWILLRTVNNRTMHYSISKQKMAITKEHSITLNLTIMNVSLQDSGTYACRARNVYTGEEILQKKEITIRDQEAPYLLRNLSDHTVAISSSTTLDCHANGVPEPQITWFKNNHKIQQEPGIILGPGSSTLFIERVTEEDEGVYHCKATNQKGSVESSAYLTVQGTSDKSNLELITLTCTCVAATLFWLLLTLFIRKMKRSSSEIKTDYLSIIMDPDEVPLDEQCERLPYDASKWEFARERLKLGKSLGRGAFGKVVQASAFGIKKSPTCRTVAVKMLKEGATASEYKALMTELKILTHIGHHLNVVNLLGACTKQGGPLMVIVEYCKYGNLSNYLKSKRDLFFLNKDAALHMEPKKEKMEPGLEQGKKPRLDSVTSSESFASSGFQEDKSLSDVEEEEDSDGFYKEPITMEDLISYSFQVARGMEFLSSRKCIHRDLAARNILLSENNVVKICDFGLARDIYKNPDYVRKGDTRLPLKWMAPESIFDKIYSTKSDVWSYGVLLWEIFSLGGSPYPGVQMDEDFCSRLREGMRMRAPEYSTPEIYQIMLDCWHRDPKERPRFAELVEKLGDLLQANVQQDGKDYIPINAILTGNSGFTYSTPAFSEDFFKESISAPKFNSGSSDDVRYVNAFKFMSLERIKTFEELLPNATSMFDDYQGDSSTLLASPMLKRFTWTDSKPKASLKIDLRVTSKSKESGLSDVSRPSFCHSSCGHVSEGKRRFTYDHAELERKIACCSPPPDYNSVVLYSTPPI
Sequence of Serine/threonine-protein kinase Chk2 (O96017 whole entry): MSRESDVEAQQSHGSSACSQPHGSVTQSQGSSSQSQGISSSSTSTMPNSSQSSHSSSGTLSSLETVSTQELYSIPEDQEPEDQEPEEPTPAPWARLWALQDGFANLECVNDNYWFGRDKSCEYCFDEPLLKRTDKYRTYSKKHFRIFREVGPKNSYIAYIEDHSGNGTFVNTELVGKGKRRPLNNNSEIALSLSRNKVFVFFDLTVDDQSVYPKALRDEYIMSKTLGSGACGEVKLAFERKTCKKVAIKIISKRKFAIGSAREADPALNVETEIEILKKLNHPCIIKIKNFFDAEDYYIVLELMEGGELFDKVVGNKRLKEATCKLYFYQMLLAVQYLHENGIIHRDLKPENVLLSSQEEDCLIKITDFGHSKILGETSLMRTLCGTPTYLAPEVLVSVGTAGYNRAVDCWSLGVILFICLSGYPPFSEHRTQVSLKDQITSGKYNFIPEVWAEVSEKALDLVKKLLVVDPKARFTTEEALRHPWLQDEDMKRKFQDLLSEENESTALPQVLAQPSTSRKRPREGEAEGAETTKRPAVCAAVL

Consider `O=C(/C=C/c1ccc(Cl)cc1)c1ccc(NC(=O)c2cc3cc4ccccc4nc3s2)cc1`, for which the pIC50 was 5.21 in the series on MIA PaCa-2; 5.10 in the series on HT-29; 4.71 in the series on A-375; 5.23 in the series with PANC-1; 5.17 in the series on NCI-H460 [2]. The viability at 96 h in [1] is > 91%.
As for `COc1ccc(/C=C/C(=O)c2ccc(NC(=O)c3cc4cc5cc(C)ccc5nc4s3)cc2)cc1OC`, the Activity in the series on NCI-H460 [3] is on record as 44.24%; in the series with NCI-H460 [4] it was 15.72%; with NCI-H460 [5], 9.08%; in the series with NCI-H460 [6], 2.31%; in the series with NCI-H460 [8], 17.45%; in the series on NCI-H460 [9], 7.22%. Moreover, the Activity in the series with NCI-H460 [10] stood at 38.31%. Further, the pIC50 in the series with MIA PaCa-2 is 6.05; with HT-29 it was 6.00; in the series on A-375, 5.70; with PANC-1, 5.92; in series [7] it was 6.30; with NCI-H460 [2] it was 6.05. For the same compound, in series [1], the viability at 96 h is > 91%.
As for `CCCCNc1ncnc2c1sc1nc3ccccc3cc12`, the pIC50 was 6.27 in series [11] and 5.77 in series [12].
With `COc1ccc2nc3sc(C(=O)Nc4ccc(C(=O)/C=C/c5ccc(OC)c(OC)c5)cc4)cc3cc2c1`, the pIC50 was 6.10 in the series on MIA PaCa-2; 6.30 in the series on HT-29; 5.80 in the series on A-375; 6.00 in the series with PANC-1; 6.15 in series [7]; 6.70 with NCI-H460 [2]. The viability at 96 h in series [1] is > 91%.
As for `COc1cccc(/C=C/C(=O)c2ccc(NC(=O)c3cc4cc5ccccc5nc4s3)cc2)c1`, the pIC50 in the series on MIA PaCa-2 is 5.21; in the series on HT-29, 5.03; with A-375, 4.55; in the series on PANC-1 it was 5.17; with NCI-H460 [2], 5.01. In addition, in [1], the viability at 96 h was > 91%.
`COc1ccc(/C=C/C(=O)c2ccc(NC(=O)c3cc4cc5ccccc5nc4s3)cc2)cc1OC`: the pIC50 was 6.30 in the series with MIA PaCa-2; 5.96 in the series with HT-29; 5.62 with A-375; 5.80 in [7]; 5.92 with NCI-H460 [2]. In series [1], the viability at 96 h is > 91%.
Regarding `COc1cccc(/C=C/C(=O)c2ccc(NC(=O)c3cc4cc5cc(OC)ccc5nc4s3)cc2)c1`, the pIC50 with MIA PaCa-2 is 5.31; in the series on HT-29, 5.17; with A-375, < 4.30; in the series with PANC-1, 5.35; in series [7] it was 5.55; in the series on NCI-H460 [2], 5.26. Also, in series [1], the viability at 96 h was > 91%.
For `Cc1ccc2nc3sc(C(=O)Nc4ccc(C(=O)/C=C/c5ccc(Cl)cc5)cc4)cc3cc2c1`, the pIC50 was 5.03 in the series on MIA PaCa-2; 4.94 in the series on HT-29; 4.40 with A-375; 5.02 in the series with PANC-1; 5.04 in the series on NCI-H460 [2]. Moreover, the viability at 96 h in series [1] is > 91%.
`COc1ccc2nc3sc(C(=O)Nc4ccc(C(=O)/C=C/c5ccccc5)cc4)cc3cc2c1`: the pIC50 is 5.23 in the series with MIA PaCa-2; 5.11 in the series with HT-29; 4.78 in the series with A-375; 5.26 in the series on PANC-1; 5.19 in the series on NCI-H460 [2]. The viability at 96 h in series [1] was > 91%.
With `COc1cccc(/C=C/C(=O)c2ccc(NC(=O)c3cc4cc5cc(C)ccc5nc4s3)cc2)c1`, the pIC50 in the series with MIA PaCa-2 is 5.43; in the series on HT-29, 5.38; in the series on A-375, 4.75; in the series with PANC-1, 5.46; in series [7], 5.54; in the series on NCI-H460 [2], 5.44. Moreover, the viability at 96 h in series [1] is > 91%.
In the case of `O=C(/C=C/c1ccccc1)c1ccc(NC(=O)c2cc3cc4ccccc4nc3s2)cc1`, the pIC50 with MIA PaCa-2 was 4.90; with HT-29 it was 4.83; in the series on A-375, < 4.30. Besides, the viability at 96 h in series [1] was > 91%.
Regarding `COc1cc(/C=C/C(=O)c2ccc(NC(=O)c3cc4cc5cc(C)ccc5nc4s3)cc2)cc(OC)c1OC`, the pIC50 in the series with MIA PaCa-2 is 5.70; with HT-29 it was 5.43; in the series with A-375, 5.19; in the series on PANC-1 it was 5.66; in series [7], 5.49; with NCI-H460 [2], 5.49. In [1], the viability at 96 h is > 91%.
On to `Cc1ccc2nc3sc(C(=O)Nc4ccc(C(=O)/C=C/c5ccccc5)cc4)cc3cc2c1`, for which the pIC50 is 5.04 with MIA PaCa-2; 4.98 in the series on HT-29; 4.59 in the series with A-375; 5.02 in the series on PANC-1; 5.01 with NCI-H460 [2]. The viability at 96 h in series [1] is > 91%.
Turning to `COc1ccc2nc3sc(C(=O)Nc4ccc(C(=O)/C=C/c5ccc(Cl)cc5)cc4)cc3cc2c1`, the pIC50 with MIA PaCa-2 is 4.84; in the series on HT-29, 4.76; in the series with A-375, 4.35; in the series on PANC-1, 4.86; in the series on NCI-H460 [2], 4.91. The viability at 96 h in series [1] was > 91%.
As for `COc1cc(/C=C/C(=O)c2ccc(NC(=O)c3cc4cc5ccccc5nc4s3)cc2)cc(OC)c1OC`, the pIC50 is 5.77 in the series on MIA PaCa-2; 5.60 with HT-29; 5.38 with A-375; 5.85 with PANC-1; 5.92 in series [7]; 5.57 in the series with NCI-H460 [2]. The viability at 96 h in series [1] was > 91%.
`COc1ccc2nc3sc(C(=O)Nc4ccc(C(=O)/C=C/c5cc(OC)c(OC)c(OC)c5)cc4)cc3cc2c1`: the pIC50 in the series with MIA PaCa-2 is 6.00; in the series on HT-29, 5.85; in the series with A-375, 5.42; with PANC-1 it was 5.85; in series [7], 5.85; in the series with NCI-H460 [2], 5.72. In addition, the viability at 96 h in series [1] is > 91%.

The values above are taken from ChEMBL document CHEMBL4368931, “Discovery of novel thienoquinoline-2-carboxamide chalcone derivatives as antiproliferative EGFR tyrosine kinase inhibitors” (Bioorg Med Chem, 2019).
